The results in this text go back to US9579325B2, “Modulators of TNF-α signaling” (Genzyme Corporation, priority 2000, dated 2017).

What is called IC50 is the concentration at which inhibition is half-maximal.

This assay deals with L929 cells. Briefly: TNF High Throughput Screen (TNF-α driven apoptosis assay). The settings on record: Mus musculus, human TNF-α + actinomycin D, read-out: TNFα IC50. It is filed as cell-based, mouse. From the text: Description of Table V: The results shown in Table V were obtained using the TNF-α assays performed as described in the protocols entitled “Method for TNF High Throughput Screen” and “Method for VCAM High Throughput Screen”, which are detailed below. These assays measure a cellular response to TNF-α stimulation, and the data published in the table are expressed as percentage inhibitions. Percentage inhibition is computed on a scale of 0 to 100% where 0 percent inhibition means the compound has no effect in the assay (the response is indistinguishable from TNF-α treatment alone), and 100% inhibition means that when the compound is present at the stated concentration, the response in the assay is the same as if TNF-α were not added. These two assays measure two different outcomes of TNF-α treatment, cell death and Vascular Cell Adhesion Molecule (VCAM) expression, and capture two of TNF-α's many biological effects. TNF-α induced apoptosis is a mechanism by which TNF-α production during immune/inflammatory responses can lead to direct cellular and tissue damage. TNF-α VCAM expression in endothelial cells is a response that allows leukocytes to leave the blood and enter a site of immune/inflammatory response. Both of these activities could lead to pathology in immune/inflammatory diseases. In the first column of the table, the percentage inhibition of the TNF-α driven apoptosis assay when the compounds are tested at 1 μM concentration is presented. The second column in the table lists the IC50 for the compound, a standard measure using a dilution series in the assay, and fitting a sigmoidal curve to the resulting dose-response curve. The IC50 is the concentration (derived analytically from the sigmoidal function) at which the compound would inhibit 50% of the response in the assay. The third and fourth column list the corresponding analysis for the TNF-α driven VCAM assay. In Table VI, data corresponding to the data in column 1 of Table V is shown, with human cells replacing the mouse cells used in the high throughput screen. […] As a consequence, the compounds will have use in treating more than one TNF-α mediated condition, and may be selected according to the manner in which the condition manifests. This corresponds to the use of these compounds in the treatment of human disease.
TNF High Throughput Screen.
• 1. Plate 4×10^4 L929 cells in 100 μl of complete EMEM in Costar 96 well plates in PM. • 2. The next day, pretreat with compound, inhibitor and control vehicle for 2 hours. • 3. After 2 hours pretreatment, add 10 μl 5 ng/ml human TNF-α and actinomycin D (40 μg/ml final concentration). • 4. Incubate overnight. • 5. In AM, remove supernatant. • 6. Wash on a plate washer (0.9% NaCl). • 7. Add 100 μl Crystal Violet 0.1% in 20% ETOH. • 8. Incubate at RT for 10 minutes. • 9. Wash on plate washer. • 10. Air dry wells at 37° C. • 11. Add 100 μl of methanol to each well. • 12. Shake plates on orbital shaker and read at 595 nm on plate reader. VCAM High Throughput Screen: Protocol: • 1. Plate Primary human umbilical vein endothelial cells at 1.8×10^4 cells/well in a 96-well tissue culture plate. • 2. Return Plates to 37° C. incubator for 48-72 hours before assay. • 3. On assay day, aspirate wells and add 1804, of endothelial growth cell medium (EGM) to each well. • 4. Add Compound to each well. • 5. Shake plates for 3 minutes. • 6. Incubate plate for 1 hour at 37° C. • 7. Add Tumor Necrosis Factor (TNF) at 1.0 ng/ml final concentration. • 8. Shake plates for 3 minutes. • 9. Incubate plate for 2 hours at 37° C. • 10. Remove plate from incubator and wash plate 3 times with phosphate buffered saline (PBS) using a plate washer. • 11. Add anti-VCAM antibody at 0.5 μg/ml final concentration. • 12. Incubate at 4° C. overnight. • 13. Wash 3 times with PBS on plate washer. • 14. Add goat anti-mouse horseradish peroxidase conjugate. • 15. Incubate at room temperature for one hour. • 16. Wash 3 times with PBS on plate washer. • 17. […]
As to `N#Cc1cccc(C(C(=O)NCCc2ccccc2)N(CCc2c[nH]cn2)C(=O)c2ccccc2C(=O)c2ccccc2)c1` (stereo not shown) [Compound 1], the 50% inhibitory concentration (IC50) was determined as 2.64 µM.
In the case of `N#Cc1cccc(C(C(=O)NC(c2ccccc2)c2ccccc2)N(CCc2c[nH]cn2)C(=O)c2ccccc2C(=O)c2ccccc2)c1` (stereo not shown) [Compound 2] it was 5.65 µM.
In the case of `N#Cc1cccc(C(C(=O)NC(Cc2ccccc2)c2ccccc2)N(CCc2c[nH]cn2)C(=O)c2ccccc2C(=O)c2ccccc2)c1` (stereo not shown) [Compound 3] it was 1.29 µM; in that of `N#Cc1cccc(C(C(=O)NCCC(c2ccccc2)c2ccccc2)N(CCc2c[nH]cn2)C(=O)c2ccccc2C(=O)c2ccccc2)c1` (stereo not shown) [Compound 4], 0.941 µM; in that of `O=C(c1ccccc1)c1ccccc1C(=O)N(CCc1c[nH]cn1)C(C(=O)NCC(c1ccccc1)c1ccccc1)c1ccccc1` (stereo not shown) [Compound 5, 2-Benzoyl-N-[(2,2-diphenyl-ethylcarbamoyl)-phenyl-methyl]-N-[2-(1H-imidazol-4-yl)-ethyl]-benzamide], 0.872 µM.
Regarding `Cc1ccccc1C(C(=O)NCC(c1ccccc1)c1ccccc1)N(CCc1c[nH]cn1)C(=O)c1ccccc1C(=O)c1ccccc1` (stereo not shown) [Compound 6], the IC50 stood at 1.06 µM.
To `Cc1cccc(C(C(=O)NCC(c2ccccc2)c2ccccc2)N(CCc2c[nH]cn2)C(=O)c2ccccc2C(=O)c2ccccc2)c1` (stereo not shown) [Compound 7] belongs 4.01 µM; to `Cc1ccc(C(C(=O)NCC(c2ccccc2)c2ccccc2)N(CCc2c[nH]cn2)C(=O)c2ccccc2C(=O)c2ccccc2)cc1` (stereo not shown) [Compound 8], 1.62 µM; to `CN(C)CCN(C(=O)c1ccccc1C(=O)c1ccccc1)C(C(=O)NCC(c1ccccc1)c1ccccc1)c1cccc(C#N)c1` (stereo not shown) [Compound 9], 0.496 µM.
To `N#Cc1cccc(C(C(=O)NCC(c2ccccc2)c2ccccc2)N(CCc2c[nH]cn2)C(=O)c2ccccc2Cc2ccccc2)c1` (stereo not shown) [Compound 10] belongs 3.68 µM.
In the case of `N#Cc1cccc(C(C(=O)NCC(c2ccccc2)c2ccccc2)N(CCN2CCOCC2)C(=O)c2ccccc2C(=O)c2ccccc2)c1` (stereo not shown) [Compound 11] it was 2.89 µM.
In the case of `CSc1ccc(C(C(=O)NCC(c2ccccc2)c2ccccc2)N(CCc2c[nH]cn2)C(=O)c2ccccc2C(=O)c2ccccc2)cc1` (stereo not shown) [Compound 12], the IC50 was 5.15 µM.
To `Cn1cnc(CCN(C(=O)c2ccccc2C(=O)c2ccccc2)C(C(=O)NCC(c2ccccc2)c2ccccc2)c2cccc(C#N)c2)c1` (stereo not shown) [Compound 13] belongs 1.37 µM; to `Cn1cncc1CCN(C(=O)c1ccccc1C(=O)c1ccccc1)C(C(=O)NCC(c1ccccc1)c1ccccc1)c1cccc(C#N)c1` (stereo not shown) [Compound 14], 1.79 µM.
In the case of `N#Cc1cccc(C(C(=O)NCC(c2ccccc2)c2ccccc2)N(CCc2c[nH]cn2)C(=O)c2ccccc2C(=O)c2ccccn2)c1` (stereo not shown) [Compound 15] it was 0.386 µM; in that of `O=C(c1ccccc1)c1ccccc1C(=O)N(CCc1c[nH]cn1)C(C(=O)NCC(c1ccccc1)c1ccccc1)c1cccc(Cl)c1` (stereo not shown) [Compound 16], 1.32 µM; in that of `O=C(c1ccccc1)c1ccccc1C(=O)N(CCc1c[nH]cn1)C(C(=O)NCC(c1ccccc1)c1ccccc1)c1cccc(C(F)(F)F)c1` (stereo not shown) [Compound 17], 1.5 µM.
Regarding `COc1ccc(CCNC(=O)C(c2cccc(C#N)c2)N(CCc2c[nH]cn2)C(=O)c2ccccc2C(=O)c2ccccc2)cc1` (stereo not shown) [Compound 18], the IC50 worked out at 2.68 µM.
To `COc1ccc(C(=O)c2ccccc2C(=O)N(CCc2c[nH]cn2)C(C(=O)NCC(c2ccccc2)c2ccccc2)c2cccc(C#N)c2)cc1` (stereo not shown) [Compound 19] belongs 0.457 µM.
On to `N#Cc1cccc(C(C(=O)NCC(c2ccccc2)c2ccccc2)N(CCc2c[nH]cn2)C(=O)c2ccccc2C(=O)c2ccc(Cl)cc2)c1` (stereo not shown) [Compound 20], for which the IC50 turned out to be 0.299 µM.
To `N#Cc1cccc(C(C(=O)NCC(c2ccccc2)c2ccccc2)N(CCn2ccnc2)C(=O)c2ccccc2C(=O)c2ccccc2)c1` (stereo not shown) [Compound 21] belongs 0.913 µM.
To `N#Cc1cccc(C(C(=O)NCC(c2ccccc2)c2ccccc2)N(CCc2c[nH]cn2)C(=O)c2ccccc2-c2ccco2)c1` (stereo not shown) [Compound 22] belongs 3.85 µM.
In the case of `N#Cc1cccc(C(C(=O)NCC(C2CCCCC2)C2CCCCC2)N(CCc2c[nH]cn2)C(=O)c2ccccc2C(=O)c2ccccc2)c1` (stereo not shown) [Compound 23] it was 2.58 µM; in that of `N#Cc1cccc(C(C(=O)NCC(c2ccccc2)c2ccccc2)N(CCCc2c[nH]cn2)C(=O)c2ccccc2C(=O)c2ccccc2)c1` (stereo not shown) [Compound 24], 1.03 µM.
Turning to `N#Cc1cccc(C(C(=O)NCC(c2ccccc2)C2CCCC2)N(CCc2c[nH]cn2)C(=O)c2ccccc2C(=O)c2ccccc2)c1` (stereo not shown) [Compound 25], the IC50 is 1.58 µM.
In the case of `CN(CC(c1ccccc1)c1ccccc1)C(=O)C(c1ccccc1)N(CCc1c[nH]cn1)C(=O)c1ccccc1C(=O)c1ccccc1` (stereo not shown) [Compound 26, 2-Benzoyl-N-{[(2,2-diphenyl-ethyl)-methyl-carbamoyl]-phenyl-methyl}-N-[2-(1H-imidazol-4-yl)-ethyl]-benzamide] it was 3.36 µM; in that of `O=C(c1ccccc1)c1ccccc1C(=O)N(CCc1c[nH]cn1)C(Cc1ccccc1C(F)(F)F)C(=O)NCC(c1ccccc1)c1ccccc1` (stereo not shown) [Compound 27], 2.72 µM.
As for `O=C(c1ccccc1)c1ccccc1C(=O)N(CCc1c[nH]cn1)C(Cc1cccc(C(F)(F)F)c1)C(=O)NCC(c1ccccc1)c1ccccc1` (stereo not shown) [Compound 28], the IC50 was determined as 5.27 µM.
To `N#Cc1cccc(C(C(=O)NCC(c2ccccc2)c2ccccc2)N(CCc2c[nH]cn2)C(=O)c2ccccc2-c2cccs2)c1` (stereo not shown) [Compound 29] belongs 3.72 µM; to `O=C(c1ccccc1)c1ccccc1C(=O)N(CCc1c[nH]cn1)C(Cc1ccccc1Cl)C(=O)NCC(c1ccccc1)c1ccccc1` (stereo not shown) [Compound 30], 2.36 µM; to `O=C(c1ccccc1)c1ccccc1C(=O)N(CCc1c[nH]cn1)C(Cc1cccc(Cl)c1)C(=O)NCC(c1ccccc1)c1ccccc1` (stereo not shown) [Compound 31], 3.35 µM.
To `O=C(c1ccccc1)c1ccccc1C(=O)N(CCc1c[nH]cn1)C(Cc1ccc(Cl)cc1)C(=O)NCC(c1ccccc1)c1ccccc1` (stereo not shown) [Compound 32] belongs 2.33 µM.
In the case of `COc1ccccc1CC(C(=O)NCC(c1ccccc1)c1ccccc1)N(CCc1c[nH]cn1)C(=O)c1ccccc1C(=O)c1ccccc1` (stereo not shown) [Compound 33] it was 2.35 µM.
As for `COc1cccc(CC(C(=O)NCC(c2ccccc2)c2ccccc2)N(CCc2c[nH]cn2)C(=O)c2ccccc2C(=O)c2ccccc2)c1` (stereo not shown) [Compound 34], the IC50 stood at 1.54 µM.
To `COc1ccc(CC(C(=O)NCC(c2ccccc2)c2ccccc2)N(CCc2c[nH]cn2)C(=O)c2ccccc2C(=O)c2ccccc2)cc1` (stereo not shown) [Compound 35] belongs 2.64 µM; to `O=C(c1ccccc1)c1ccccc1C(=O)N(CCc1c[nH]cn1)C(Cc1ccccc1F)C(=O)NCC(c1ccccc1)c1ccccc1` (stereo not shown) [Compound 36], 2.15 µM; to `O=C(c1ccccc1)c1ccccc1C(=O)N(CCc1c[nH]cn1)C(Cc1cccc(F)c1)C(=O)NCC(c1ccccc1)c1ccccc1` (stereo not shown) [Compound 37], 2.36 µM.
In the case of `O=C(c1ccccc1)c1ccccc1C(=O)N(CCc1c[nH]cn1)C(Cc1ccc(F)cc1)C(=O)NCC(c1ccccc1)c1ccccc1` (stereo not shown) [Compound 38], the half-maximal inhibitory concentration (IC50) amounted to 2.79 µM.
For `N#Cc1cccc(C(C(=O)NCC(c2ccccc2)c2ccccn2)N(CCc2c[nH]cn2)C(=O)c2ccccc2C(=O)c2ccccc2)c1` (stereo not shown) [Compound 39], the 50% inhibitory concentration (IC50) was found to be 1.32 µM.
Take `[N-]=[N+]=Nc1cccc(C(C(=O)NCC(c2ccccc2)c2ccccc2)N(CCc2c[nH]cn2)C(=O)c2ccccc2C(=O)c2ccccc2)c1` (stereo not shown) [Compound 40]: the IC50 is 1.74 µM.
